Entries after “also recorded” stand apart in the source; their conditions may differ.

This assay deals with Tamarixia radiata. The assay can be described thus: Y-tube olfactometer preference, exposed vs intact Carrizo citrange plants. It is filed as in vivo. The note with it: plants exposed 24 h vs intact plants. The procedure: To assess the preference of D. citri females and the parasitoid T. radiata to Carrizo citrange plants that were previously exposed for 24 h to (Z)-3-HP in relation to intact plants, a Y-shaped olfactometer was used in the same way as that described in Example 1, and the plants were exposed to both volatiles as described above with the use of pieces of filter paper. A total of 40 valid replicates were recorded for each species for each pair of odor sources. Each individual was tested only once. […] After recording five responses, the Y-tube was rinsed with soapy water, cleaned with acetone, and allowed to dry for 5 minutes. The odor sources were later switched between the left and right side arms to minimize any spatial effect on choice. The two types of plants (intact and induced) were used only once to assess the response of 10 females and were then replaced with new plants. The Y-tube experiment was performed under the following environmental conditions: 25±1° C. and 60±10% RH.
The D. citri adults were obtained from a colony established at SWFREC (University of Florida), initially originating from citrus fruits located in their experimental plots. The parasitoids were collected in these experimental fields. Newly emerged adult females less than 5 days old were used in all the assays.

In the case of `CC/C=C\CCOC(=O)CC` [(Z)-3-hexenyl propanoate], the “Response of Tamarixia radiata females to exposed citrus plants” value is recorded as “highly attractive; also recorded: more attractive”.

The record behind these values is patent US20230240290A1, “USE OF (Z)-3-HEXENYL ESTERS AND METHOD FOR PROTECTING PLANTS AGAINST PESTS” (UNIVERSITAT POLITÈCNICA DE VALÈNCIA, priority 2020, published 2023).
